In one series the target is p38-MK2 (Homo sapiens, UniProt P49137+Q16539). As to conditions: patients with rheumatoid arthritis, preliminary clinical trial results; cited from earlier work.
Another series relates to p-Hsp27 in U937 cells. Briefly: Inhibition of p-Hsp27 in LPS-stimulated U937 cells (ELISA). The format is cell-based. As to conditions: Homo sapiens, U-937; PMA-differentiated U937, 10 ng/ml LPS 0.5 hours; read-out: U937 cell activity test p-HSP27 IC50. The protocol:
U937 cells were treated with 20 ng/ml PMA for differentiation overnight, and after replacement with a fresh culture medium, the U937 cells were rested overnight. After differentiation, the U937 cell were digested and counted, and 25,000 cells per well were seeded in a 96-well plate until the cells adhered to the wall. A compound concentration gradient was prepared, the cells were pretreated with the compound for 1 hour (the highest final concentration of the compound was 1 μM, diluted in 3-fold concentration gradient), and 10 ng/ml LPS (Lipopolysaccharides from Escherichia coli O111:B4) was added for stimulation for 0.5 hours. After the cells were washed with PBS, the cells were lysed with a lysis solution. p-Hsp27 in the cell lysate was detected by using Phospho-HSP27 (S78/S82) DuoSet IC ELISA kit. For specific steps, reference could be made to the standard steps provided by the kit manufacturer.
Calculation of p-Hsp27 inhibition rate: Inhibition rate %=[(mean value of p-Hsp27 in positive control well−mean value of p-Hsp27 in sample well)/(mean value of p-Hsp27 in positive control well−mean value of p-Hsp27 in negative control well)]×100%, wherein the positive control well was a well without a compound (DMSO-treated well), and the negative control well was a well without LPS stimulation.
Dose response curve fitting: Log(inhibitor) vs. response−Variable slope (four parameters) in GraphPad Prism 6 was used for fitting equation analysis of the compound concentration and the corresponding inhibition rate, and the curve was fitted to obtain the IC50 value of the compound.
(§1) The fitting calculation equation was Y=Bottom+(Top−Bottom)/(1+10^((Log IC50−X)*HillSlope)).
Background: An ELISA detects its analyte on a solid surface through an enzyme-linked reagent.

The target in a further series is T1, p38α/MK2 (Homo sapiens, UniProt P49137+Q16539).
T1 construct: purchased R & D systems (p38 alpha); Thermo (MK2) 5477-KS-010; PV3316
T1 sequence (Q16539 whole entry): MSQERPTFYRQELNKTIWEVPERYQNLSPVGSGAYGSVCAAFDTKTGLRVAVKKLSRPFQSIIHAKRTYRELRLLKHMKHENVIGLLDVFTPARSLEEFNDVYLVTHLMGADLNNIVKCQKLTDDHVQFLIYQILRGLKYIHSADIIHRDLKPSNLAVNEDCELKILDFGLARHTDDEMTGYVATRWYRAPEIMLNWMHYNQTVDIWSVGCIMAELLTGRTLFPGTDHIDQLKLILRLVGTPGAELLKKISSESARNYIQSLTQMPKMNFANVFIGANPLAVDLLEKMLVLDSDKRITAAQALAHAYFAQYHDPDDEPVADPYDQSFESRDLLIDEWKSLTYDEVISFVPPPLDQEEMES
T1 sequence (P49137 whole entry): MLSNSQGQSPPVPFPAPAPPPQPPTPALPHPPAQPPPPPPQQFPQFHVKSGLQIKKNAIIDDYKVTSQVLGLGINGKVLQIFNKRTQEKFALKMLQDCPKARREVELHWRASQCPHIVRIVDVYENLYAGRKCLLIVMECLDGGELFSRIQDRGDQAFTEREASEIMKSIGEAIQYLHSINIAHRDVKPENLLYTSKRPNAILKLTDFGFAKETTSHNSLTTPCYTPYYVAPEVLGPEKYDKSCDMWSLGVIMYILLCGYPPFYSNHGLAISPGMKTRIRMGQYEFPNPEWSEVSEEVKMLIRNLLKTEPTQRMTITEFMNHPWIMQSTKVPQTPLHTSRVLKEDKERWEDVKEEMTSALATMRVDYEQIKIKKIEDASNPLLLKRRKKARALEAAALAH
Briefly: Inhibition of p38α/MK2 enzyme activity (TR-FRET, ULight-CREBtide). The format is biochemical. The protocol: (§2) 50 nM ULight-CREBtide and 25 μM ATP (ATP Solution) were added, and the mixture was reacted at room temperature for 1.5 hours. An equal volume of a detection and termination mixed solution (1×LANCE detection buffer containing 20 mM EDTA and 2 nM Europium-anti-phospho-CREB) was added, the mixture was mixed until uniform and centrifuged, a plate sealing film was attached, and a reaction was performed at room temperature for 1 hour. TR-FRET program of the EnVision instrument was used to read the plate, and the fluorescence value of each well was detected at 665 nm/615 nm.
(§3) Calculation was performed on the raw data (665 nm/615 nm reading ratio) according to the following formula to obtain the inhibition rate. Inhibition rate %=[(mean value in positive control well−value in sample well)/(mean value in positive control well−mean value in negative control well)]×100, wherein the positive control well was a reaction well without a compound […], and the negative control well was a reaction wells without an enzyme.
(§4) Log(inhibitor) vs. response−Variable slope (four parameters) in GraphPad Prism 6 was used for fitting equation analysis of the compound concentration and the corresponding inhibition rate, and the curve was fitted to obtain the IC50 value of the compound.
as §1
A general note: Time-resolved FRET reads energy transfer from a long-lived donor to a nearby acceptor.

A short description of series [1]: Pharmacokinetic assay in SD rats (PO administration). As to conditions: male, Sprague-Dawley (SD), rat, 5 mg/kg, plasma. The format is in vivo. The protocol: SD rats were used as test animals to study the pharmacokinetic behavior of the compounds of the present invention in the rat body (plasma) after oral administration at a dose of 5 mg/kg or 2 mg/kg and intravenous administration at a dose of 1 mg/kg.
3 SD rats/group, male, from Shanghai Jiesijie Experimental Animal Co., Ltd., animal production license number (SCXK (Shanghai) 2013-0006 N0.311620400001794).
PO, 10% solutol HS15 was dissolved by ultrasound and prepared into a clear solution or homogeneous suspension.
3 SD rats/group, male; After fasting overnight, the rats were administered p.o. at a dose of 5 mg/kg or 2 mg/kg with a dosage volume of 10 mL/kg and i.v. at a dose 1 mg/kg with a dosage volume of 5 mL/kg, respectively.
At 0.25, 0.5, 1, 2, 4, 6, 8, and 24 h after oral administration in the rats and at 0.083, 0.25, 0.5, 1, 2, 4, 6, 8, and 24 h after intravenous administration in the rats, 0.2 mL of blood was collected from the jugular vein, placed in an EDTA-K2 test tube, centrifuged at 4° C. at 6000 rpm for 6 min to separate plasma, which was stored at −80° C.
• 1) 100 μL of acetonitrile was added to 20 μL of plasma sample for pelleting, and it was mixed and centrifuged at 3500×g for 5-20 min. • 2) The treated supernatant solution was taken and subjected to LC/MS/MS to analyze the concentrations of the test compounds. LC/MS/MS analysis instrument: AB Sciex API 4000 Qtrap.
• Liquid phase conditions: Shimadzu LC-20AD pump • Chromatographic column: Waters Xbridge C18 5 μm, 4.6×50 mm, mobile phase: liquid A was 0.1% aqueous formic acid solution, and liquid B was methanol • Flow rate: 1.0 mL/min • Elution time: 0-4.0 min, the eluent was as follows:
The main pharmacokinetic parameters were calculated using WinNonlin 6.1.

Series [2] addresses T2, p38a (Active p38 alpha Protein) (Homo sapiens, UniProt Q16539).
T2 construct: purchased R & D systems 5477-KS-010
As to the kind of experiment: Inhibition of p38 enzyme activity (TR-FRET, ULight-MBP). In kind it is biochemical. As to conditions: 3 nM p38a, 50 μM ATP. Here is the method:
as §2, with “Experimental method for determining the p38 enzyme activity: 3 nM p38a (Active p38 alpha Protein) and compounds diluted in a certain concentration gradient were incubated in 1× enzyme reaction buffer (50 mM HEPES pH 7.5, 1 mM EGTA, 10 mM MgCl2, 2 mM DTT, 0.01% Tween-20) for 1 hour. 50” for “50”, “ULight-MBP” for “ULight-CREBtide”, “50” for “25”, “(ATP 10 mM” for “(ATP”, “Europium-anti-P-MBP)” for “Europium-anti-phospho-CREB)”
as §3, §4, §1

A further series deals with TNF-α in U937 cells. Briefly: Inhibition of the expression level of TNF-α in LPS-stimulated U937 cells (ELISA). In kind it is cell-based. The settings on record: Homo sapiens, U-937; PMA-differentiated U937, 10 ng/ml LPS 4 hours; read-out: U937 cell activity test TNF-α IC50. The protocol:
U937 cells were treated with 20 ng/ml PMA for differentiation overnight, and after replacement with a fresh culture medium, the U937 cells were rested overnight. After differentiation, the U937 cells were digested and counted, and 50,000 cells per well were seeded in a 96-well plate until the cells adhered to the wall. A compound concentration gradient was prepared, the cells were pretreated with the compound for 1 hour (the highest final concentration of the compound was 1 μM, diluted in 3-fold concentration gradient), and 10 ng/ml LPS (Lipopolysaccharides from Escherichia coli O111:B4) was added for stimulation for 4 hours. Thereafter, the culture supernatant was collected by centrifugation and used for subsequent ELISA to detect the concentration of TNF-α in the supernatant. The concentration of TNF-α was detected according to the standard steps provided by the ELISA kit manufacturer.
A standard curve was plotted by a linear regression method from a TNF-α standard, and the concentration of TNF-α in a sample was derived by conversion according to the standard curve.
Calculation of inhibition rate: Inhibition rate %=[(mean value of TNF-α concentration in positive control well−mean value of TNF-α concentration in sample well)/(mean value of TNF-α concentration in positive control well−mean value of TNF-α concentration in negative control well)]×100%, wherein the positive control well was a well without a compound (DMSO-treated well), and the negative control well was a culture medium well.
Dose response curve fitting: Log(inhibitor) vs. response−Variable slope (four parameters) in GraphPad Prism 6 was used for fitting equation analysis of the compound concentration and the corresponding inhibition rate, and the curve was fitted to obtain the IC50 value of the compound. The fitting calculation equation was Y=Bottom+(Top−Bottom)/(1+10^((Log IC50−X)*HillSlope)).

The structures appear in SMILES notation.

p38-MK2, sequence (Q16539 whole entry): as the sequence (Q16539 whole entry) above
p38-MK2, sequence (P49137 whole entry): as the sequence (P49137 whole entry) above
T2 sequence (Q16539 whole entry): as the sequence (Q16539 whole entry) above

Regarding `Cc1cnc(-c2ccnc(C(C)(C)O)n2)cc1-n1c(C)cc(OCc2ncc(F)cc2F)c(Cl)c1=O` [ATI-450], on p38-MK2, the efficacy entry was “outstanding and lasting efficacy”; the safety and tolerability result is “safe and tolerable”.

`[2H]C([2H])(Oc1cc2n(c(=O)c1Cl)-c1c(cnc(-c3ccnc(C(C)(C)O)n3)c1F)CCCC2)c1ncc(F)cc1F` [Example 9-1, (R)-11-chloro-10-((3,5-difluoropyridin-2-yl)methoxy-d2)-1-fluoro-2-(2-(2-hydroxypropan-2-yl)pyrimidin-4-yl)-5,6,7,8-tetrahydro-12H-dipyrido[1,2-a:3′4′-g]azocin-12-one]: the IC50 with p-Hsp27 in U937 cells was determined as 0.1 nM; at p38α/MK2 (0.06 nM p38a, 1.2 nM MK2, 25 μM ATP, read-out: p38/MK2 IC50), 0.14 nM; in series [2], 22.9 nM; in the series on TNF-α in U937 cells, 0.12 nM. Moreover, the “Selectivity ratio (p38 IC50 / p38/MK2 IC50)” value on p38α/MK2 (selectivity ratio p38 IC50 over p38/MK2 IC50) stood at 164. Moreover, the AUC(0-inf) in series [1] (read-out: Area under the curve AUC0-∞) was 22000 ng·h/mL. The half-life in series [1] (read-out: Half-life t1/2 (converted)) is 150 min. The MRT (usually the average time that molecules of a dose stay in the body) in series [1] (read-out: Mean residence time MRT) came to 3.8 h. The Cmax in series [1] (read-out: Plasma concentration Cmax) was found to be 3760 ng/mL. The Tmax (commonly the time at which the peak concentration occurs) in series [1] (read-out: Time to peak tmax) is 30 min.
